Laboratory results from paper PMC3776562 (Journal of the American Chemical Society, 2013).

Columns and labels:
Mcl-1 [1] = target: T1, Mcl-1 (Mus musculus, UniProt P97287); test: Stopped-flow fluorescence association kinetics of PUMA constructs with Mcl-1; assay type: binding; settings: chemical denaturants, lowering total protein concentration, altering temperature
T1 construct: with 151 N-terminal residues and 23 C-terminal residues removed; hexahistidine tag with thrombin cleavage site (N, cleaved yes); made in house; host or cells: Escherichia coli C41 (DE3)
Procedure: The synthetic genes for truncated mouse Mcl-1 (UniProt P97287) with 151 N-terminal residues and 23 C-terminal residues removed (Figure S2C) and GB1-PUMA (Figure S2D) were obtained from Genscript. The genes were inserted into a modified version of the pRSET A vector that encodes an N-terminal hexahistidine tag with a thrombin cleavage site between the tag and the protein. Due to the cleavage of thrombin, a GS is added at the N-termini of Mcl-1. Protein expression was carried out in Escherichia coli C41 (DE3) grown in LB media at 37 °C. […] Identity was confirmed using mass spectrometry, the concentration of GB1-PUMA was determined by the method of Gill von Hippel,[36] and the concentration of Mcl-1 was determined using amino acid analysis.
Mouse PUMA peptide, residues 128–161 (Uniprot Q99ML1) with the M144I mutation used in the NMR structure 2ROC[26], together with N-terminal acetylation and C-terminal amidation, was synthesized by Selleck Chemicals. […] Peptide concentration was determined using amino acid analysis and identity confirmed using mass spectrometry. […]
Association kinetics were monitored by following the change in intrinsic fluorescence on an SX18 or SX20 stopped-flow spectrometer (Applied Photophysics). […] Association kinetics were analyzed using eq 3([51]) that describes irreversible association of two proteins at initial concentrations [A]0 and [B]0: [drawing 3] […]

Mcl-1 [2] = target: T1, Mcl-1; test: Temperature dependence of association rate constant; assay type: binding; settings: stopped-flow fluorescence
Procedure: (§1) Association kinetics were monitored by following the change in intrinsic fluorescence on an SX18 or SX20 stopped-flow spectrometer (Applied Photophysics). All PUMA solutions were incubated at 25 °C for 30 min before use to allow for dissociation of oligomers. Because of mixing artifacts, data collected before the first 5 ms were removed before fitting. Proteins were mixed at near equal (1–0.25 μM) concentrations. Association kinetics were analyzed using eq 3([51]) that describes irreversible association of two proteins at initial concentrations [A]0 and [B]0: [drawing 3] 3 where F is fluorescence, F0 the initial fluorescence, ΔF is the fluorescence amplitude of the reaction, [A]0 is the initial concentration of one protein, [B]0 the other, x = [B]0/[A]0, k+ is the association rate constant, and t is time. Where repeat measurements were made, standard errors are shown as error bars. Errors were propagated using standard equations.

Mcl-1 [3] = target: T1, Mcl-1; test: Circular dichroism of 1:1 complex with Mcl-1; assay type: binding; settings: CD
Text: (§2) CD scans were taken in an Applied Photophysics Chirascan, using 10 to 2 mm path length cuvettes. Percentage helicity calculated using the mean residue ellipticity at 222 nm.[24]

[4] = Intrinsic tryptophan fluorescence emission spectra; assay type: physicochemical; settings: excitation at 280 nm; unbound
Procedure: (§3) Intrinsic tryptophan fluorescence was also used to probe the structural changes in these proteins upon association.
(§4) Figure S4. Fluorescence spectra of Mcl-1 and PUMA peptide show Mcl-1 is folded, PUMA is unfolded and binding occurs. […]
(§5) fluorescence spectrum characteristic of buried tryptophans whereas PUMA (blue) […]
(§6) An increase in fluorescence is seen upon mixing 1 µM: 1 µM of Mcl-1 and PUMA peptide. 1:1 complex (black solid line) […]
(§7) a greater signal than the spectrum predicted for no interaction (dashed line), which is the sum of the PUMA alone (blue) and Mcl-1 alone (magenta) spectra.

[5] = Circular dichroism, unbound PUMA helicity; assay type: physicochemical; settings: CD
Procedure: as §2
Figure S9. Changes in helicity of PUMA peptide with solvent and temperature.
Due to the oligomerization of the PUMA peptide circular dichroism (CD) was recorded at the low concentration of 1 µM with a 10 mm pathlength cuvette to maximize signal.
Errors due to buffer subtraction and high absorbances prevent quantitative analysis of these spectra. However, each individual figure was recorded on the same day so qualitative conclusions can be drawn. (a) The helicity of the PUMA peptide is highly temperature dependent, with lower temperatures favoring helical conformations. (b) Increasing concentration of the denaturant urea results in the disfavoring of helical […]
significant change in CD signal.

Mcl-1 [6] = target: T1, Mcl-1; test: Urea dependence of association rate constant; assay type: binding
Text: Urea is a denaturing cosolvent used in protein folding studies to energetically disfavor structured states. […] However, increasing urea concentrations also makes solutions more viscous. […] Further, the natural log of k+ against concentration of urea is linear, with a gradient of m = 0.55 (±0.02) M^–1 (Figure 3D).
as §1

Mcl-1 [7] = target: T1, Mcl-1; test: Ionic strength dependence of association rate constant (fit to eq 4); assay type: binding
Procedure: Unless otherwise stated, experiments were carried out in 50 mM sodium phosphate, pH 7.0. For the ionic strength dependence of association protein and peptide were exchanged to the low ionic strength 10 mM MOPS, pH 7.0, buffer (I = 0.004 M) and then ionic strength was controlled using [NaCl]. NaOH was titrated to maintain neutral pH upon addition of NaCl.
as §1, with “equations. […]” for “equations.”

folded Bcl-2 members = settings: cited from earlier work
Text: The binding of BH3 regions to folded Bcl-2 family members is, due to their important physiological role and the large number of homologues, one of the most heavily studied coupled folding and binding reactions, particularly with respect to equilibrium binding constants obtained and structures solved.[21],[29] BH3 peptides have potential therapeutic value and have been the focus for the design of peptide-based mimics, including hydrocarbon staples,[42] α/β-peptides,[43] miniature proteins[44] and photoswitchable peptides.[45] To understand the general principles of binding, knowledge of kinetic ...

Mcl-1 [8] = target: T1, Mcl-1; test: Fluorescence change on complex formation with Mcl-1; settings: binding to Mcl-1; intrinsic tryptophan fluorescence
Procedure: as §3, §4, §5, §6, §7

Mcl-1 [9] = target: T1, Mcl-1; test: Viscosity dependence of association rate constant (glucose); assay type: binding; settings: glucose as viscogen; relative rate constant vs relative viscosity
Procedure: We measured k+ in varying concentrations of the small-molecule viscogen glucose and the observed k+ did indeed match the predicted rate constant (k0η0/η) (Figure 2B) and produce the standard viscosity plot[37] (k0/k+ vs η/η0) with the expected slope for a ‘diffusion-limited’ reaction, ∼1 (Figure 2C).
as §1

[10] = PUMA peptide oligomerization (CD, size-exclusion chromatography, SDS-PAGE); assay type: physicochemical
Text: as §2
Figure S3. PUMA peptide undergoes reversible oligomerization to an α-helical structure. (a) The Circular dichroism spectra of the PUMA peptide becomes more α-helical at higher concentrations, consistent with the formation of an α-helical oligomer.
(b) Oligomers are visible on denaturing SDS-PAGE gel of PUMA peptide at ~10-100 µM concentrations. White numbers refer to elution volumes from FPLC trace (c). (c) […]
PUMA oligomers (i), for comparison a trace for a similar size monomeric peptide is […]
-200 Monomeric BH3 peptide
(1 picture or pasted object on this page, not shown here)

[11] = target: truncated mouse Mcl-1 (induced myeloid leukemia cell differentiation protein), 151 N-terminal and 23 C-terminal residues removed (mouse) (UniProt P97287); test: stopped-flow fluorescence kinetics; intrinsic fluorescence; protein and peptide mixed at near equal concentrations (1-0.25 uM), also pseudo-first-order conditions; 50 mM sodium phosphate, pH 7.0; fit to irreversible association (eq 3)
[12] = target: T2, truncated mouse Mcl-1 (induced myeloid leukemia cell differentiation protein), 151 N-terminal and 23 … (mouse, UniProt P97287 152-308); test: as above; settings: both partners purified
[13] = target: T2, truncated mouse Mcl-1 (induced myeloid …); test: fluorescence kinetics after manual mixing; Mcl-1 and PUMA solutions manually mixed at nanomolar concentrations, fluorescence followed; fit to a model with association and dissociation; settings: both partners purified
[14] = target: the molecule itself; test: SEC + other: concentration dependent circular dichroism and denaturing SDS-PAGE; PUMA peptide alone at concentrations above 2 uM; reversible oligomerization
[15] = Mcl-1 urea unfolding by intrinsic tryptophan fluorescence; assay type: physicochemical, mouse; settings: 1 µM Mcl-1, 25 °C, 50 mM PO4 pH 7.0, excitation 280 nm, emission 360 nm
Procedure: Figure S8. Mcl-1 remains folded up to 3.5 M urea. Mcl-1 fraction folded calculated
from the intrinsic tryptophan fluorescence of Mcl-1 (1 µM Mcl-1, 25 °C, 50 mM PO 4
pH 7.0, excitation at 280 nm, 10 nm pathlength, emission at 360 nm, 5nm pathlength).

For “Ac-VEEEEWAREIGAQLRRIADDLNAQYERRRQEEQH-NH2 [PUMA peptide]”, the “dissociation of preformed Mcl-1 PUMA complex” value (Mcl-1 [1]) was “No solvent conditions could be found where preformed Mcl-1 PUMA complex could be observed to dissociate without unfolding the structured Mcl-1”, the “effect of temperature on association” value (Mcl-1 [2]) was “An increase in temperature accelerates association” and the “helicity on binding Mcl-1” value (Mcl-1 [3]) was “increased α-helicity relative to the two proteins in isolation”. For the same molecule, the fluorescence emission maximum [4] was 360 nm, the “change in helicity with temperature” value ([5]; 1 µM, 10 mm pathlength cuvette, 15–60 °C, qualitative) was “less helical at higher temperatures” and the “change in intrinsic helicity with ionic strength and urea” value ([5]; 1 µM, 10 mm pathlength cuvette, urea 0–3 M, I 4–214 mM, qualitative) was “showed little ionic strength dependence but was reduced in the presence of urea”. For the same molecule, the “residual helicity in the unbound state” value ([5]; mean residue ellipticity at 222 nm, 50 mM PO4, pH 7.0, 25 °C) was about 20%, the “effect of urea on k+” value (Mcl-1 [6]; increasing urea, compared with prediction from viscosity k0η0/η) was “decreased by significantly more than what would be expected due to viscosity effects alone” and the “m, gradient of ln(k+) against urea concentration” value (Mcl-1 [6]; urea 0 upward, stopped-flow) was 0.55 (±0.02) M^–1. For the same molecule, the “rate constant in the absence of long-range electrostatics k+basal” value (Mcl-1 [7]; 10 mM MOPS, pH 7.0 (I = 0.004 M), ionic strength controlled with NaCl, fit to eq 4, a set to 6 Å) was 6 (±1) × 10^5 M^–1 s^–1, the kon (Mcl-1 [7]; read-out: association rate constant k+ at high ionic strength) was 100000 to 1e+06 M⁻¹ s⁻¹ and the “affinity for folded Bcl-2 members relative to other BH3 peptides” value (folded Bcl-2 members) was “greater affinity than most other BH3 peptides”. For the same molecule, the “overall fluorescence change upon complex formation” value (Mcl-1 [8]) was “significant increase in overall fluorescence upon complex formation”, the “slope of viscosity plot (k0/k+ vs η/η0)” value (Mcl-1 [9]) was 1.13 ± 0.02 and the “concentration above which reversible oligomerization to highly α-helical structure occurs” value ([10]; concentration dependent CD, size-exclusion chromatography and denaturing SDS-PAGE) was “above 2 μM”. For the same molecule, the “concentration at which oligomers are visible on gel” value ([10]; denaturing SDS-PAGE) was 10 to 100 µM.

Work on “GB1-PUMA: 90 aa chain containing a soluble GB1 domain fused to the N-terminus of the 34 aa PUMA peptide (from UniProt Q99ML1 128-161)” yielded a kon [11] of 1.29e+07 M⁻¹ s⁻¹.

Work on Ac-VEEEEWAREIGAQLRRIADDLNAQYERRRQEEQH-NH2 (peptide, UniProt Q99ML1 128-161, looked up) [Mouse PUMA peptide, residues 128-161, M144I, N-terminal acetylation and C-terminal amidation] yielded a kon [12] of 1.59e+07 M⁻¹ s⁻¹, a Kd [13] of 0.1 nM and a koff [13] of 0.0016 s⁻¹. Ac-VEEEEWAREIGAQLRRIADDLNAQYERRRQEEQH-NH2 (peptide, UniProt Q99ML1 128-161, looked up) [Mouse PUMA peptide, residues 128-161, M144I, N-terminal acetylation and C-terminal amidation]: binds [14].

B1: Mcl-1: truncated mouse Mcl-1 (UniProt P97287) with 151 N-terminal residues and 23 C-terminal residues removed; GS added at N-terminus (protein)
chain: GSEDDLYRQSLEIISRYLREQATGSKDSKPLGEAGAAGRRALETLRRVGDGVQRNHETAFQGMLRKLDIKNEGDVKSFSRVMVHVFKDGVTNWGRIVTLISFGAFVAKHLKSVNQESFIEPLAETITDVLVRTKRDWLVKQRGWDGFVEFFHVQDLEGG
modifications: left off: His6, N-terminal, cleaved
notes: truncated mouse Mcl-1 (UniProt P97287) with 151 N-terminal residues and 23 C-terminal residues removed; GS added at N-terminus
In the case of B1, the fluorescence emission maximum [4] is reported as 330 nm and the “urea concentration up to which protein remains folded” value [15] is reported as 3.5 M.
